According to patent publication US20250228239A1, “MOLECULES HAVING PESTICIDAL UTILITY, AND INTERMEDIATES, COMPOSITIONS, AND PROCESSES, RELATED THERETO” (priority 2024, published 2025):
Where two headings read alike, the source gives them in different places.

Key:
Assay type in all cases: in vivo
[1] = tested on: Yellow Fever Mosquito (Aedes aegypti, AEDSAE); conditions: for YFM rating: Table ABC / ABC-DP rating
Procedure, shortened: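 Larvae ~1 day old, in liver powder/water; compound from 4000 ppm DMSO stock diluted with water/acetone (90:10); 6 reps; lidded, RT, 3 d; mortality scored per well, rated.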

[2] = tested on: Cabbage Looper (Trichoplusia ni, TRIPNI); assay: Bioassays on Cabbage Looper (CL), 128-well diet tray assay; conditions: Trichoplusia ni
Procedure, shortened: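 Second-instar larvae (1–5 per well) placed on artificial diet surface-treated with 50 μg/cm^2 test molecule applied in 90:10 acetone-water and dried. Held at 25° C., 14:10 light-dark, for five to seven days. Percent mortality scored per well and averaged over eight wells.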

[3] = tested on: Beet Armyworm (Spodoptera exigua, LAPHEG); assay: Bioassays on Beet Armyworm (BAW), 128-well diet tray assay; conditions: Spodoptera exigua
Procedure, shortened: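 Larvae at second instar are exposed on dried, compound-treated diet (50 μg/cm^2, delivered in 90:10 acetone-water) in eight replicate wells. After five to seven days at 25° C., 14:10 light-dark, percent mortality in each well is scored and the eight wells averaged.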

[4] = Cabbage Looper, Table ABC / ABC-DP rating, read-out: CL rating
[5] = Beet Armyworm, Table ABC / ABC-DP rating, read-out: BAW rating
[6] = Table ABC: Biological Results, species YFM
[7] = Table ABC: Biological Results, species CL, read-out: CL
[8] = Table ABC: Biological Results, species BAW, read-out: BAW

SMILES | YFM rating ([1]; Yellow Fever Mosquito) | pest or weed control at 50 µg/cm2 [2, 4] | pest or weed control at 50 µg/cm2 [3, 5] | YFM [1, 6] | pest or weed control at 50 µg/cm2 [2, 7] | pest or weed control at 50 µg/cm2 [3, 8] | other results
O=C(Nc1ccc(F)c(NC(=O)C(F)(F)F)c1)c1cc(NC(=O)[C@H]2[C@H](c3ccc(F)c(Cl)c3)C2(Cl)Cl)ccc1Cl [F1814, 2-Chloro-5-((1R,3R)-2,2-dichloro-3-(3-chloro-4-fluorophenyl)cyclopropane-1-carboxamido)-N-(4-fluoro-3-(2,2,2-trifluoroacetamido)phenyl)benzamide] | A (80–100) | 50 to 100% | 50 to 100% | – | – | – | –
Cc1cc(NC(=O)[C@H]2[C@H](c3ccc(F)c(Cl)c3)C2(Cl)Cl)cc(C(=O)NCC(F)(F)C(F)(F)F)c1F (relative stereo) [F2031, trans-5-(2,2-Dichloro-3-(3-chloro-4-fluorophenyl)cyclopropane-1-carboxamido)-2-fluoro-3-methyl-N-(2,2,3,3,3-pentafluoropropyl)benzamide] | A (80–100) | 50 to 100% | 50 to 100% | – | – | – | –
CC(=O)Nc1ccc(NC(=O)c2cc(NC(=O)[C@H]3[C@H](c4ccc(F)c(Cl)c4)C3(Cl)Cl)cc(C)c2F)cc1 (relative stereo) [F1139, trans-N-(4-Acetamidophenyl)-5-(2,2-dichloro-3-(3-chloro-4-fluorophenyl)-cyclopropane-1-carboxamido)-2-fluoro-3-methylbenzamide] | – | – | – | A (80–100) | 50 to 100% | 50 to 100% | –
O=C(Nc1ccc(F)c(NC(=O)C(F)F)c1F)c1cc(NC(=O)[C@H]2[C@H](c3cc(C(F)(F)F)cc(C(F)(F)F)c3)C2(Cl)Cl)ccc1Cl (relative stereo) [F1802, trans-5-(3-(3,5-bis(Trifluoromethyl)phenyl)-2,2-dichlorocyclopropane-1-carboxamido)-2-chloro-N-(3-(2,2-difluoroacetamido)-2,4-difluorophenyl)benzamide] | A (80–100) | 50 to 100% | 50 to 100% | – | – | – | –
O=C(Nc1ccc(F)cc1F)c1cc(NC(=O)[C@H]2[C@H](c3cc(C(F)(F)F)cc(Cl)c3F)C2(Cl)Cl)ccc1Cl (relative stereo) [F1050, trans-2-Chloro-5-(2,2-dichloro-3-(3-chloro-2-fluoro-5-(trifluoromethyl)phenyl)cyclopropane-1-carboxamido)-N-(2,4-difluorophenyl)benzamide] | – | – | – | A (80–100) | 50 to 100% | 50 to 100% | –
O=C(Nc1ccc(F)cc1F)c1cc(NC(=O)[C@H]2[C@H](c3ccc(I)cc3)C2(Cl)Cl)ccc1Cl (relative stereo) [F1087, trans-2-Chloro-5-(2,2-dichloro-3-(4-iodophenyl)cyclopropane-1-carboxamido)-N-(2,4-difluorophenyl)benzamide] | – | – | – | A (80–100) | 50 to 100% | 50 to 100% | –
O=C(Nc1ccc(F)c(NC(=O)C(F)F)c1F)c1cc(NC(=O)[C@H]2[C@H](c3cccc(Cl)c3)C2(Cl)Cl)ccc1Cl (relative stereo) [F1601, trans-2-Chloro-5-(2,2-dichloro-3-(3-chlorophenyl)cyclopropane-1-carboxamido)-N-(3-(2,2-difluoroacetamido)-2,4-difluorophenyl)benzamide] | – | – | – | – | – | – | YFM ([1]; Yellow Fever Mosquito, rating class): A (80–100); pest or weed control at 50 µg/cm2 ([2]; Cabbage Looper, rating class, read-out: CL): 50 to 100%; pest or weed control at 50 µg/cm2 ([3]; Beet Armyworm, rating class, read-out: BAW): 50 to 100%
O=C(NCC(F)(F)F)c1cc(NC(=O)[C@H]2[C@H](c3ccc(F)c(Cl)c3)C2(Cl)Cl)cc(C(F)(F)F)c1Cl (relative stereo) [F2054, trans-2-Chloro-5-(2,2-dichloro-3-(3-chloro-4-fluorophenyl)cyclopropane-1-carboxamido)-N-(2,2,2-trifluoroethyl)-3-(trifluoromethyl)benzamide] | A (80–100) | 50 to 100% | 50 to 100% | – | – | – | –
CCOC(=O)C(F)C(=O)Nc1c(F)ccc(NC(=O)c2cc(NC(=O)[C@H]3[C@H](c4ccc(F)c(C(F)(F)F)c4)C3(Cl)Cl)ccc2Cl)c1F (stereo partly drawn) [F1822, Ethyl 3-((3-(2-chloro-5-((1R,3R)-2,2-dichloro-3-(4-fluoro-3-(trifluoromethyl)phenyl)cyclopropane-1-carboxamido)benzamido)-2,6-difluorophenyl)amino)-2-fluoro-3-oxopropanoate] | A (80–100) | 50 to 100% | 50 to 100% | – | – | – | –
O=C(Nc1ccc(F)cc1)c1c(F)ccc(NC(=O)[C@H]2[C@H](c3ccc(F)c(Cl)c3)C2(Cl)Cl)c1F (relative stereo) [F1100, trans-3-(2,2-Dichloro-3-(3-chloro-4-fluorophenyl)cyclopropane-1-carboxamido)-2,6-difluoro-N-(4-fluorophenyl)benzamide] | – | – | – | A (80–100) | 50 to 100% | 50 to 100% | –
CN(NC(=O)c1cc(NC(=O)[C@H]2[C@H](c3cc(Cl)c(Cl)c(Cl)c3)C2(Cl)Cl)ccc1Cl)c1ccccc1 [F2511, (1R,3R)-2,2-Dichloro-N-(4-chloro-3-(2-methyl-2-phenylhydrazine-1-carbonyl)phenyl)-3-(3,4,5-trichlorophenyl)cyclopropane-1-carboxamide] | A (80–100) | 50 to 100% | 50 to 100% | – | – | – | –
CCCC(=O)Nc1c(F)ccc(NC(=O)c2cc(NC(=O)[C@H]3[C@H](c4ccc(F)c(C(F)(F)F)c4)C3(Cl)Cl)ccc2Cl)c1F [F1385, N-(3-Butyramido-2,4-difluorophenyl)-2-chloro-5-((1R,3R)-2,2-dichloro-3-(4-fluoro-3-(trifluoromethyl)phenyl)cyclopropane-1-carboxamido)benzamide] | – | – | – | A (80–100) | 50 to 100% | 50 to 100% | –
CC1(C(=O)Nc2c(F)ccc(NC(=O)c3cc(NC(=O)[C@H]4[C@H](c5ccc(F)c(C(F)(F)F)c5)C4(Cl)Cl)ccc3Cl)c2F)CC1(Cl)Cl (stereo partly drawn) [F1273, 2-Chloro-N-(3-(2,2-dichloro-1-methylcyclopropane-1-carboxamido)-2,4-difluorophenyl)-5-((1R,3R)-2,2-dichloro-3-(4-fluoro-3-(trifluoromethyl)phenyl)cyclopropane-1-carboxamido)benzamide] | – | – | – | A (80–100) | 50 to 100% | 50 to 100% | –
Nc1c(F)ccc(NC(=O)c2cc(NC(=O)[C@H]3[C@H](c4ccc(F)c(Cl)c4F)C3(Cl)Cl)ccc2Cl)c1F (relative stereo) [F1049, trans-N-(3-Amino-2,4-difluorophenyl)-2-chloro-5-(2,2-dichloro-3-(3-chloro-2,4-difluorophenyl)cyclopropane-1-carboxamido)benzamide] | – | – | – | A (80–100) | 50 to 100% | 50 to 100% | –
CC(=O)NCCCCCNC(=O)c1cc(NC(=O)[C@H]2[C@H](c3cc(Cl)cc(Cl)c3)C2(Cl)Cl)ccc1Cl (relative stereo) [F2069, trans-N-(5-Acetamidopentyl)-2-chloro-5-(2,2-dichloro-3-(3,5-dichlorophenyl)cyclopropane-1-carboxamido)benzamide] | A (80–100) | 50 to 100% | 50 to 100% | – | – | – | –
